Test system: BV2 cells
Settings: not given

Row | Structure (SMILES) | Growth inhibition / Cytotoxicity assays: BV2 cells
1 | COc1ccc2nc(C)cc(OCC(=O)NCc3ccccc3)c2c1 [GSK463114A] | False
2 | c1ccc(Cc2nnc(Sc3ccnc(N4CCN(c5ccncc5)CC4)n3)n2CCN2CCOCC2)cc1 [GSK547511A] | False
3 | Cc1nn(Cc2ccccc2)c(Cl)c1C(=O)NC1CCCCCC1 [GSK636544A] | False
4 | Fc1ccc2nc(Nc3nc(-c4ccccn4)cs3)sc2c1 [GSK735816A] | False
5 | c1ccc(-c2csc(Nc3nc4cc5c(cc4s3)OCO5)n2)nc1 [GSK735826A] | False
6 | NC(=O)c1cc(-c2ccsc2)ccc1OCCOc1ccccc1 [GSK1365028A] | False
7 | O=C(Cc1ccc(F)cc1)Nc1nc(-c2ccccn2)cs1 [GSK1570606A] | False
8 | CCc1c(C)nc(-n2nc(C)cc2NC(=O)c2ccccc2SC)[nH]c1=O [GSK1783710A] | False
9 | O=C(CCCSc1ccccc1)NNC(=O)c1cccs1 [GSK2157753A] | False

Test system: M. marinum in A. castellanii
Assay type: cell-based, Mycobacterium marinum
Settings: not given

Row | Structure (SMILES) | Intracellular infection assays: A. castellanii / M. marinum
10 | COc1ccc2nc(C)cc(OCC(=O)NCc3ccccc3)c2c1 [GSK463114A] | 1.10
11 | c1ccc(Cc2nnc(Sc3ccnc(N4CCN(c5ccncc5)CC4)n3)n2CCN2CCOCC2)cc1 [GSK547511A] | 0.94
12 | Cc1nn(Cc2ccccc2)c(Cl)c1C(=O)NC1CCCCCC1 [GSK636544A] | 1.07
13 | Fc1ccc2nc(Nc3nc(-c4ccccn4)cs3)sc2c1 [GSK735816A] | 1.17
14 | c1ccc(-c2csc(Nc3nc4cc5c(cc4s3)OCO5)n2)nc1 [GSK735826A] | 0.98
15 | NC(=O)c1cc(-c2ccsc2)ccc1OCCOc1ccccc1 [GSK1365028A] | 1.14
16 | O=C(Cc1ccc(F)cc1)Nc1nc(-c2ccccn2)cs1 [GSK1570606A] | 1.21
17 | CCc1c(C)nc(-n2nc(C)cc2NC(=O)c2ccccc2SC)[nH]c1=O [GSK1783710A] | 1.00
18 | O=C(CCCSc1ccccc1)NNC(=O)c1cccs1 [GSK2157753A] | 1.00

Test system: Mtb H37Rv
Design: method as in Sorrentino et al, 2015
Settings: ref Sorrentino et al, 2015; cited from earlier work

Row | Structure (SMILES) | Extracellular MIC90 [µM]
19 | COc1ccc2nc(C)cc(OCC(=O)NCc3ccccc3)c2c1 [GSK463114A] | 1.1
20 | Cc1nn(Cc2ccccc2)c(Cl)c1C(=O)NC1CCCCCC1 [GSK636544A] | 5.2
21 | Fc1ccc2nc(Nc3nc(-c4ccccn4)cs3)sc2c1 [GSK735816A] | 2.3
22 | c1ccc(-c2csc(Nc3nc4cc5c(cc4s3)OCO5)n2)nc1 [GSK735826A] | 2.7

Test system: M. marinum luxCDABE
Assay type: cell-based, Mycobacterium marinum
Settings: not given

Row | Structure (SMILES) | Antibiotic assays: M. marinum luxCDABE
23 | COc1ccc2nc(C)cc(OCC(=O)NCc3ccccc3)c2c1 [GSK463114A] | 0.00
24 | c1ccc(Cc2nnc(Sc3ccnc(N4CCN(c5ccncc5)CC4)n3)n2CCN2CCOCC2)cc1 [GSK547511A] | 0.13
25 | Cc1nn(Cc2ccccc2)c(Cl)c1C(=O)NC1CCCCCC1 [GSK636544A] | 0.00
26 | Fc1ccc2nc(Nc3nc(-c4ccccn4)cs3)sc2c1 [GSK735816A] | 0.00
27 | c1ccc(-c2csc(Nc3nc4cc5c(cc4s3)OCO5)n2)nc1 [GSK735826A] | 0.00
28 | NC(=O)c1cc(-c2ccsc2)ccc1OCCOc1ccccc1 [GSK1365028A] | 0.00
29 | O=C(Cc1ccc(F)cc1)Nc1nc(-c2ccccn2)cs1 [GSK1570606A] | 0.00
30 | CCc1c(C)nc(-n2nc(C)cc2NC(=O)c2ccccc2SC)[nH]c1=O [GSK1783710A] | 0.67
31 | O=C(CCCSc1ccccc1)NNC(=O)c1cccs1 [GSK2157753A] | 0.11

Test system: Mtb H37Rv in THP-1
Design: method as in Sorrentino et al, 2015
Settings: THP1 / Mtb H37Rv infection assay; ref Sorrentino et al, 2015; cited from earlier work

Row | Structure (SMILES) | Intracelullar MIC90 in THP-1 [µM]
32 | COc1ccc2nc(C)cc(OCC(=O)NCc3ccccc3)c2c1 [GSK463114A] | 5.55
33 | c1ccc(Cc2nnc(Sc3ccnc(N4CCN(c5ccncc5)CC4)n3)n2CCN2CCOCC2)cc1 [GSK547511A] | >50
34 | Cc1nn(Cc2ccccc2)c(Cl)c1C(=O)NC1CCCCCC1 [GSK636544A] | 1.85
35 | Fc1ccc2nc(Nc3nc(-c4ccccn4)cs3)sc2c1 [GSK735816A] | 1.85
36 | c1ccc(-c2csc(Nc3nc4cc5c(cc4s3)OCO5)n2)nc1 [GSK735826A] | 1.85
37 | NC(=O)c1cc(-c2ccsc2)ccc1OCCOc1ccccc1 [GSK1365028A] | >50
38 | O=C(Cc1ccc(F)cc1)Nc1nc(-c2ccccn2)cs1 [GSK1570606A] | >50
39 | CCc1c(C)nc(-n2nc(C)cc2NC(=O)c2ccccc2SC)[nH]c1=O [GSK1783710A] | >50
40 | O=C(CCCSc1ccccc1)NNC(=O)c1cccs1 [GSK2157753A] | >50

Same assay, conditions: ratio; ref Sorrentino et al, 2015; cited from earlier work

Row | Structure (SMILES) | Extracellular MIC90/ Inracellular MIC90
41 | COc1ccc2nc(C)cc(OCC(=O)NCc3ccccc3)c2c1 [GSK463114A] | 0.2
42 | Cc1nn(Cc2ccccc2)c(Cl)c1C(=O)NC1CCCCCC1 [GSK636544A] | 2.81
43 | Fc1ccc2nc(Nc3nc(-c4ccccn4)cs3)sc2c1 [GSK735816A] | 1.24
44 | c1ccc(-c2csc(Nc3nc4cc5c(cc4s3)OCO5)n2)nc1 [GSK735826A] | 1.46

Test system: D. discoideum GFP-ABD
Settings: not given

Row | Structure (SMILES) | Growth inhibition / Cytotoxicity assays: D. discoideum GFP-ABD
45 | COc1ccc2nc(C)cc(OCC(=O)NCc3ccccc3)c2c1 [GSK463114A] | 0.95
46 | c1ccc(Cc2nnc(Sc3ccnc(N4CCN(c5ccncc5)CC4)n3)n2CCN2CCOCC2)cc1 [GSK547511A] | 1.02
47 | Cc1nn(Cc2ccccc2)c(Cl)c1C(=O)NC1CCCCCC1 [GSK636544A] | 0.93
48 | Fc1ccc2nc(Nc3nc(-c4ccccn4)cs3)sc2c1 [GSK735816A] | 0.37
49 | c1ccc(-c2csc(Nc3nc4cc5c(cc4s3)OCO5)n2)nc1 [GSK735826A] | 0.86
50 | NC(=O)c1cc(-c2ccsc2)ccc1OCCOc1ccccc1 [GSK1365028A] | 0.94
51 | O=C(Cc1ccc(F)cc1)Nc1nc(-c2ccccn2)cs1 [GSK1570606A] | 0.06
52 | CCc1c(C)nc(-n2nc(C)cc2NC(=O)c2ccccc2SC)[nH]c1=O [GSK1783710A] | 0.94
53 | O=C(CCCSc1ccccc1)NNC(=O)c1cccs1 [GSK2157753A] | 1.04

Test system: M. marinum in BV2 microglial cells
Assay type: cell-based, Mycobacterium marinum
Settings: not given

Row | Structure (SMILES) | Intracellular infection assays: BV2 / M. marinum
54 | COc1ccc2nc(C)cc(OCC(=O)NCc3ccccc3)c2c1 [GSK463114A] | 1.37
55 | c1ccc(Cc2nnc(Sc3ccnc(N4CCN(c5ccncc5)CC4)n3)n2CCN2CCOCC2)cc1 [GSK547511A] | 1.36
56 | Cc1nn(Cc2ccccc2)c(Cl)c1C(=O)NC1CCCCCC1 [GSK636544A] | 1.35
57 | Fc1ccc2nc(Nc3nc(-c4ccccn4)cs3)sc2c1 [GSK735816A] | 1.37
58 | c1ccc(-c2csc(Nc3nc4cc5c(cc4s3)OCO5)n2)nc1 [GSK735826A] | 1.47
59 | NC(=O)c1cc(-c2ccsc2)ccc1OCCOc1ccccc1 [GSK1365028A] | 1.42
60 | O=C(Cc1ccc(F)cc1)Nc1nc(-c2ccccn2)cs1 [GSK1570606A] | 1.05
61 | CCc1c(C)nc(-n2nc(C)cc2NC(=O)c2ccccc2SC)[nH]c1=O [GSK1783710A] | 1.11
62 | O=C(CCCSc1ccccc1)NNC(=O)c1cccs1 [GSK2157753A] | 1.67

— PMC5834492, “Antimycobacterial drug discovery using Mycobacteria-infected amoebae identifies anti-infectives and new molecular targets” (Scientific Reports, 2018)
